Laboratory results taken from PMC9475448, “What a difference a methylene makes: replacing Glu with Asp or Aad in the Lys-urea-Glu pharmacophore of PSMA-targeting radioligands to reduce kidney and salivary gland uptake” (Theranostics, 2022).
Values joined by “and” are separate entries in the source; they are usually repeats but may differ in a detail not shown here. Equal values may be shown once. One block for each compound: values may come before it.

Tested on: LNCaP tumor-bearing mice
Assay: Ex vivo biodistribution of 68Ga-labeled ligands in LNCaP tumor-bearing NSG mice
[1] = 1 h post-injection, listed as [68Ga]Ga-HTK03189A
[2] = 1 h post-injection, listed as [68Ga]Ga-HTK03189B
[3] = 1 h blocked, co-injected with DCFPyL (0.5 mg)
[4] = 1 h post-injection, listed as [68Ga]Ga-HTK03149
[5] = co-injection of DCFPyL (0.5 mg), 1 h post-injection
[6] = 1 h post-injection, listed as [68Ga]Ga-HTK03161

Higher tumor uptake than [68Ga]Ga-HTK03189B (1 h post-injection): ~ 2 fold
Adrenal glands uptake [1]: 0.35 ± 0.06 %IA/g
Blood uptake [1]: 0.89 ± 0.22 %IA/g
Blood:Salivary gland uptake ratio [1]: 4.39 ± 0.44
Bone uptake [1]: 0.12 ± 0.03 %IA/g
Brain uptake [1]: 0.02 ± 0.00 %IA/g
Fat uptake [1]: 0.18 ± 0.11 %IA/g
Heart uptake [1]: 0.24 ± 0.06 %IA/g
Intestines uptake [1]: 0.31 ± 0.18 %IA/g
Kidneys uptake [1]: 2.65 ± 0.69 %IA/g
Lacrimal glands uptake [1]: 0.18 ± 0.18 %IA/g
Liver uptake [1]: 0.34 ± 0.15 %IA/g
Lungs uptake [1]: 0.68 ± 0.12 %IA/g
Muscle uptake [1]: 0.14 ± 0.04 %IA/g
Pancreas uptake [1]: 0.15 ± 0.04 %IA/g
Salivary glands uptake [1]: 0.20 ± 0.04 %IA/g
Spleen uptake [1]: 0.21 ± 0.10 %IA/g
Stomach uptake [1]: 0.11 ± 0.06 %IA/g
Testes uptake [1]: 0.23 ± 0.11 %IA/g
Thyroid uptake [1]: 0.25 ± 0.05 %IA/g
Tumor uptake [1]: 2.10 ± 0.28 %IA/g
Tumor:Blood uptake ratio [1]: 2.41 ± 0.29
Tumor:Kidney uptake ratio [1]: 0.83 ± 0.21
Tumor:Muscle uptake ratio [1]: 16.5 ± 4.08
Tumor:Salivary gland uptake ratio [1]: 10.5 ± 1.07
Tumor uptake (1 h post-injection, listed as [^68Ga]Ga-HTK0189A): 2.10±0.28 %IA/g
SMILES: O=C([O-])CN1CCN(CC(=O)[O-])CCN(CC(=O)NCC2CCC(C(=O)NC(Cc3c4ccccc4cc4ccccc34)C(=O)NCCCCC(NC(=O)NC(CCCCC(=O)O)C(=O)O)C(=O)O)CC2)CCN(CC(=O)[O-])CC1.[68Ga+3] (single isomer, unassigned) [[^68Ga]Ga-HTK03189A]

Tumor uptake (1 h post-injection): 0.67±0.15 %IA/g
Adrenal glands uptake [2]: 0.37 ± 0.15 %IA/g
Blood uptake [2]: 1.06 ± 0.25 %IA/g
Blood:Salivary gland uptake ratio [2]: 4.86 ± 1.16
Bone uptake [2]: 0.10 ± 0.02 %IA/g
Brain uptake [2]: 0.03 ± 0.00 %IA/g
Fat uptake [2]: 0.17 ± 0.10 %IA/g
Heart uptake [2]: 0.30 ± 0.06 %IA/g
Intestines uptake [2]: 0.28 ± 0.07 %IA/g
Kidneys uptake [2]: 2.13 ± 0.45 %IA/g
Lacrimal glands uptake [2]: 0.13 ± 0.04 %IA/g
Liver uptake [2]: 0.39 ± 0.08 %IA/g
Lungs uptake [2]: 0.82 ± 0.22 %IA/g
Muscle uptake [2]: 0.12 ± 0.03 %IA/g
Pancreas uptake [2]: 0.18 ± 0.05 %IA/g
Salivary glands uptake [2]: 0.22 ± 0.04 %IA/g
Spleen uptake [2]: 0.20 ± 0.05 %IA/g
Stomach uptake [2]: 0.11 ± 0.03 %IA/g
Testes uptake [2]: 0.26 ± 0.05 %IA/g
Thyroid uptake [2]: 0.29 ± 0.08 %IA/g
Tumor uptake [2]: 0.67 ± 0.15 %IA/g
Tumor:Blood uptake ratio [2]: 0.65 ± 0.15
Tumor:Kidney uptake ratio [2]: 0.32 ± 0.05
Tumor:Muscle uptake ratio [2]: 5.68 ± 1.12
Tumor:Salivary gland uptake ratio [2]: 3.08 ± 0.53
SMILES: O=C([O-])CN1CCN(CC(=O)[O-])CCN(CC(=O)NCC2CCC(C(=O)NC(Cc3c4ccccc4cc4ccccc34)C(=O)NCCCCC(NC(=O)NC(CCCCC(=O)O)C(=O)O)C(=O)O)CC2)CCN(CC(=O)[O-])CC1.[68Ga+3] (single isomer, unassigned) [[^68Ga]Ga-HTK03189B]

SMILES: O=C([O-])CN1CCN(CC(=O)[O-])CCN(CC(=O)NCC2CCC(C(=O)NC(Cc3c4ccccc4cc4ccccc34)C(=O)NCCCCC(NC(=O)NC(CCCC(=O)O)C(=O)O)C(=O)O)CC2)CCN(CC(=O)[O-])CC1.[68Ga+3] (stereo not drawn) [[^68Ga]Ga-HTK03149]
Adrenal glands uptake [3]: 0.22 ± 0.03 %IA/g
Blood uptake [3]: 0.67 ± 0.04 %IA/g
Blood:Salivary gland uptake ratio [3]: 4.80 ± 0.54
Bone uptake [3]: 0.07 ± 0.01 %IA/g
Brain uptake [3]: 0.02 ± 0.00 %IA/g
Fat uptake [3]: 0.08 ± 0.01 %IA/g
Heart uptake [3]: 0.19 ± 0.01 %IA/g
Intestines uptake [3]: 0.21 ± 0.04 %IA/g
Kidneys uptake [3]: 1.93 ± 0.39 %IA/g
Lacrimal glands uptake [3]: 0.14 ± 0.08 %IA/g
Liver uptake [3]: 0.22 ± 0.03 %IA/g
Lungs uptake [3]: 0.49 ± 0.03 %IA/g
Muscle uptake [3]: 0.08 ± 0.01 %IA/g
Pancreas uptake [3]: 0.12 ± 0.01 %IA/g
Salivary glands uptake [3]: 0.14 ± 0.01 %IA/g
Spleen uptake [3]: 0.15 ± 0.04 %IA/g
Stomach uptake [3]: 0.04 ± 0.00 %IA/g
Testes uptake [3]: 0.19 ± 0.02 %IA/g
Thyroid uptake [3]: 0.18 ± 0.01 %IA/g
Tumor uptake [3]: 0.77 ± 0.06 %IA/g
Tumor:Blood uptake ratio [3]: 1.16 ± 0.13
Tumor:Kidney uptake ratio [3]: 0.41 ± 0.09
Tumor:Muscle uptake ratio [3]: 7.18 ± 3.58
Tumor:Salivary gland uptake ratio [3]: 5.53 ± 0.39
Adrenal glands uptake (1 h post-injection): 0.33 ± 0.11 %IA/g
Blood uptake (1 h post-injection): 0.70 ± 0.17 %IA/g
Blood:Salivary gland uptake ratio (1 h post-injection): 3.21±0.64
Bone uptake (1 h post-injection): 0.11 ± 0.04 %IA/g
Brain uptake (1 h post-injection): 0.02 ± 0.00 %IA/g
Fat uptake (1 h post-injection): 0.17 ± 0.15 %IA/g
Heart uptake (1 h post-injection): 0.21 ± 0.03 %IA/g
Intestines uptake (1 h post-injection): 0.24 ± 0.05 %IA/g
Kidneys uptake (1 h post-injection): 4.15±1.46 %IA/g
Lacrimal glands uptake (1 h post-injection): 0.15 ± 0.09 %IA/g
Liver uptake (1 h post-injection): 0.25 ± 0.06 %IA/g
Lungs uptake (1 h post-injection): 0.53 ± 0.09 %IA/g
Muscle uptake (1 h post-injection): 0.11 ± 0.04 %IA/g
Pancreas uptake (1 h post-injection): 0.13 ± 0.02 %IA/g
Salivary glands uptake (1 h post-injection): 0.22±0.06 %IA/g
Spleen uptake (1 h post-injection): 0.27 ± 0.05 %IA/g
Stomach uptake (1 h post-injection): 0.07 ± 0.01 %IA/g
Testes uptake (1 h post-injection): 0.23 ± 0.13 %IA/g
Thyroid uptake (1 h post-injection): 0.20 ± 0.05 %IA/g
Tumor uptake (1 h post-injection): 19.1±6.37 %IA/g
Tumor:Blood uptake ratio (1 h post-injection): 29.5±15.8
Tumor:Kidney uptake ratio (1 h post-injection): 5.44±3.88 and > 5.0
Tumor:Muscle uptake ratio (1 h post-injection): 185±79.6
Tumor:Salivary gland uptake ratio (1 h post-injection): 97.3±59.2
Kidneys uptake [4]: 4.15 ± 1.46 %IA/g
Salivary glands uptake [4]: 0.22 ± 0.06 %IA/g
Tumor uptake [4]: 19.1 ± 6.37 %IA/g
Reduction of average uptake in LNCaP tumor xenografts by blocking [5]: 96%
Reduction of average uptake in kidneys by blocking [5]: 53%
Reduction of average uptake in salivary glands by blocking [5]: 36%

Adrenal glands uptake (1 h post-injection): 0.41 ± 0.07 %IA/g
Blood uptake (1 h post-injection): 1.13 ± 0.19 %IA/g
Blood:Salivary gland uptake ratio (1 h post-injection): 5.08±0.62
Bone uptake (1 h post-injection): 0.11 ± 0.02 %IA/g
Brain uptake (1 h post-injection): 0.02 ± 0.00 %IA/g
Fat uptake (1 h post-injection): 0.15 ± 0.04 %IA/g
Heart uptake (1 h post-injection): 0.32 ± 0.05 %IA/g
Intestines uptake (1 h post-injection): 0.31 ± 0.09 %IA/g
Kidneys uptake (1 h post-injection): 4.41±1.26 %IA/g
Lacrimal glands uptake (1 h post-injection): 0.12 ± 0.06 %IA/g
Liver uptake (1 h post-injection): 0.28 ± 0.05 %IA/g
Lungs uptake (1 h post-injection): 0.75 ± 0.13 %IA/g
Muscle uptake (1 h post-injection): 0.15 ± 0.04 %IA/g
Pancreas uptake (1 h post-injection): 0.18 ± 0.03 %IA/g
Salivary glands uptake (1 h post-injection): 0.23±0.05 %IA/g
Spleen uptake (1 h post-injection): 0.27 ± 0.06 %IA/g
Stomach uptake (1 h post-injection): 0.10 ± 0.04 %IA/g
Testes uptake (1 h post-injection): 0.54 ± 0.51 %IA/g
Thyroid uptake (1 h post-injection): 0.29 ± 0.05 %IA/g
Tumor uptake (1 h post-injection): 12.7±1.91 %IA/g
Tumor:Blood uptake ratio (1 h post-injection): 11.4 ± 1.73
Tumor:Kidney uptake ratio (1 h post-injection): 3.03 ± 0.84
Tumor:Muscle uptake ratio (1 h post-injection): 89.4 ± 36.1
Tumor:Salivary gland uptake ratio (1 h post-injection): 57.2 ± 7.11
Kidneys uptake [6]: 4.41 ± 1.26 %IA/g
Salivary glands uptake [6]: 0.23 ± 0.05 %IA/g
Tumor uptake [6]: 12.7 ± 1.91 %IA/g
SMILES: O=C([O-])CN1CCN(CC(=O)[O-])CCN(CC(=O)NCC2CCC(C(=O)NC(Cc3c4ccccc4cc4ccccc34)C(=O)NCCCCC(NC(=O)NC(CC(=O)O)C(=O)O)C(=O)O)CC2)CCN(CC(=O)[O-])CC1.[68Ga+3] (stereo not drawn) [[^68Ga]Ga-HTK03161]
